Reference: US11161850B2, “Fused pyrazine derivatives as A2A / A2B inhibitors” (Incyte Corporation, priority 2018, dated 2021)
Read-outs that look alike come from different tables or passages of the source.

Columns and labels:
[1] = molecular target: human adenosine A2B receptor (Homo sapiens (Human), UniProt P29275); test: Adenosine A2B Receptor Cyclic AMP GS Assay; assay type: cell-based; conditions: A2B_cAMP_EC50 (nM), HEK-293 cells expressing human A2B, agonist NECA 12 nM
How it was run: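 Stably transfected HEK-293 cells were preincubated with compound for 30 min at room temperature, then stimulated with 12 nM NECA for 60 min. cAMP accumulation was read by FRET (665/620 ratio), and EC50 was fitted from percent of control versus log compound concentration.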

Adenosine A2A = Adenosine A2A (Homo sapiens (Human), UniProt P29274); test: A2A Tag-Lite HTRF assay; assay type: binding
Chain of Adenosine A2A (P29274 whole entry): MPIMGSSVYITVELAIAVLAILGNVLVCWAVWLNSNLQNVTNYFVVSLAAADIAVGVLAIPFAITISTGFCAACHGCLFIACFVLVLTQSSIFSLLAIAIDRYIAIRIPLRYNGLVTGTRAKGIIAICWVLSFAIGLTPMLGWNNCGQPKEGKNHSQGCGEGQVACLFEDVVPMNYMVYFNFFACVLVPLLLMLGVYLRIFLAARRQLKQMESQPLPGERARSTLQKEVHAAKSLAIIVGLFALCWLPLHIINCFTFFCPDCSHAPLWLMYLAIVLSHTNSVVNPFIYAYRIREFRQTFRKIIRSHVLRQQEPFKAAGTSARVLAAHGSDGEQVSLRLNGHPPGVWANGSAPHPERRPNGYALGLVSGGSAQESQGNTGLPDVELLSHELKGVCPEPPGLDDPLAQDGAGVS
Description: Example C. A2A Tag-Lite® HTRF Assay

[2] = Tag-Lite Adenosine A2A labeled cells, fluorescent ligand 12.5 nM, read-out: A2A_Ki

Chain of human adenosine A2B receptor (P29275 whole entry): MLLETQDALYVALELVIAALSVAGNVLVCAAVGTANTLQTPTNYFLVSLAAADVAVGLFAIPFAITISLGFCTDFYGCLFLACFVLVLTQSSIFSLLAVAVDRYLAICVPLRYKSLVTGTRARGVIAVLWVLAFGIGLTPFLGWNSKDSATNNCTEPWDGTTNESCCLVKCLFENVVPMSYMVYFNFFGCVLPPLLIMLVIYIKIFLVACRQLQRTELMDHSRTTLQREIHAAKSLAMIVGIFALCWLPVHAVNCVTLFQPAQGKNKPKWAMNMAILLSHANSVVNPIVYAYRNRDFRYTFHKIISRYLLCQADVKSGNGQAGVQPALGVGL

Row | Structure (SMILES) | EC50 [1] [nM] | Ki (Adenosine A2A; [2]) [nM] | Ki (Adenosine A2A) [nM]
1 | N#Cc1cccc(-c2nc(N)c3nc(Cc4ccccc4CN[C@H]4CCNC4=O)nn3c2-c2ccncn2)c1 [Example 75, (S)-3-(8-amino-2-(2-(((2-oxopyrrolidin-3-yl)amino)methyl)benzyl)-5-(pyrimidin-4-yl)-[1,2,4]triazolo[1,5-a]pyrazin-6-yl)benzonitrile] | < 10 | < 10 | 
2 | N#Cc1cccc(-c2nc(N)c3cc(Cc4c[nH]c5cccnc45)nn3c2-c2ccncn2)c1 [Example 96, 3-(2-((1H-pyrrolo[3,2-b]pyridin-3-yl)methyl)-4-amino-7-(pyrimidin-4-yl)pyrazolo[1,5-a]pyrazin-6-yl)benzonitrile] | 10 to 100 | < 10 | 
3 | N#Cc1cccc(-c2nc(N)c3nc(Cn4cc5ccccc5n4)nn3c2-c2ccncn2)c1 [Example 47, 3-(2-((2H-Indazol-2-yl)methyl)-8-amino-5-(pyrimidin-4-yl)-[1,2,4]triazolo[1,5-a]pyrazin-6-yl)benzonitrile] | 10 to 100 | < 10 | 
4 | N#Cc1cccc(-c2nc(N)c3nc(Cn4ccc5cccnc54)nn3c2-c2ccncn2)c1 [Example 32, 3-(2-((1H-Pyrrolo[2,3-b]pyridin-1-yl)methyl)-8-amino-5-(pyrimidin-4-yl)-[1,2,4]triazolo[1,5-a]pyrazin-6-yl)benzonitrile] | < 10 | < 10 | 
5 | N#Cc1cccc(-c2nc(N)c3ncnn3c2-c2ccc3nccn3c2)c1 [Example 124, 3-(8-Amino-5-(imidazo[1,2-a]pyridin-6-yl)-[1,2,4]triazolo[1,5-a]pyrazin-6-yl)benzonitrile] | < 10 | < 10 | 
6 | CCNC(=O)c1cc2c(N)nc(-c3cccc(C#N)c3)c(-c3ccnn3CC)n2n1 [Example 1, 4-Amino-6-(3-cyanophenyl)-N-ethyl-7-(1-ethyl-1H-pyrazol-5-yl)pyrazolo[1,5-a]pyrazine-2-carboxamide] | 10 to 100 | < 10 | 
7 | N#Cc1cccc(-c2nc(N)c3cc(CN4CCC4)nn3c2-c2ccncn2)c1 [Example 13, 3-(4-Amino-2-(azetidin-1-ylmethyl)-7-(pyrimidin-4-yl)pyrazolo[1,5-a]pyrazin-6-yl)benzonitrile] | 100 to 1000 |  | 10 to 100
8 | [2H]C([2H])([2H])n1nc(-c2c(-c3cccc(C#N)c3)nc(N)c3nc(Cc4ccccn4)nn23)ccc1=O [Example 127, 3-(8-amino-5-(1-(methyl-d3)-6-oxo-1,6-dihydropyridazin-3-yl)-2-(pyridin-2-ylmethyl)-[1,2,4]triazolo[1,5-a]pyrazin-6-yl)benzonitrile] | < 10 |  | < 10
9 | N#Cc1cccc(-c2cn3nc(Cc4c(F)cccc4-c4cnn(Cc5ccccn5)c4)nc3c(N)n2)c1F [Example 107, 3-(8-amino-2-(2-fluoro-6-(1-(pyridin-2-ylmethyl)-1H-pyrazol-4-yl)benzyl)-[1,2,4]triazolo[1,5-a]pyrazin-6-yl)-2-fluorobenzonitrile] | 10 to 100 | < 10 | 
10 | CC(=O)N1CCC(Cc2cccc(F)c2Cc2nc3c(N)nc(-c4cccc(C#N)c4F)cn3n2)CC1 [Example 91, 3-(2-(2-((1-acetylpiperidin-4-yl)methyl)-6-fluorobenzyl)-8-amino-[1,2,4]triazolo[1,5-a]pyrazin-6-yl)-2-fluorobenzonitrile] | 10 to 100 | < 10 | 
11 | CCNC(=O)c1cc2c(N)nc(-c3cccc(C#N)c3)c(-c3ccc(=O)n(C)c3)n2n1 [Example 3, 4-Amino-6-(3-cyanophenyl)-N-ethyl-7-(1-methyl-6-oxo-1,6-dihydropyridin-3-yl)pyrazolo[1,5-a]pyrazine-2-carboxamide] | 100 to 1000 | < 10 | 
12 | N#Cc1cccc(-c2cn3nc(Cc4c(F)cccc4-c4cnn(CC(=O)N5CC(O)C5)c4)nc3c(N)n2)c1F [Example 118, 3-(8-amino-2-(2-fluoro-6-(1-(2-(3-hydroxyazetidin-1-yl)-2-oxoethyl)-1H-pyrazol-4-yl)benzyl)-[1,2,4]triazolo[1,5-a]pyrazin-6-yl)-2-fluorobenzonitrile] | < 10 | < 10 | 
13 | N#Cc1cccc(-c2nc(N)c3cc(C(O)c4ccccc4F)nn3c2-c2ccncn2)c1 (racemic) [Example 23, 3-(4-Amino-2-((2-fluorophenyl)(hydroxy)methyl)-7-(pyrimidin-4-yl)pyrazolo[1,5-a]pyrazin-6-yl)benzonitrile] | < 10 | < 10 | 
14 | N#Cc1cccc(-c2nc(N)c3ncnn3c2-c2ccc(=O)[nH]c2)c1 [Example 15, 3-(8-Amino-5-(6-oxo-1,6-dihydropyridin-3-yl)-[1,2,4]triazolo[1,5-a]pyrazin-6-yl)benzonitrile] | < 10 | < 10 | 
15 | Cn1ncc(NCc2cccc(F)c2Cc2nc3c(N)nc(-c4cccc(C#N)c4)c(-c4ccncn4)n3n2)n1 [Example 74, 3-(8-amino-2-(2-fluoro-6-(((2-methyl-2H-1,2,3-triazol-4-yl)amino)methyl)benzyl)-5-(pyrimidin-4-yl)-[1,2,4]triazolo[1,5-a]pyrazin-6-yl)benzonitrile] | < 10 | < 10 | 
16 | COc1cccc(Cc2nc3c(N)nc(-c4cccc(C#N)c4)c(-c4ccc(=O)n(C)n4)n3n2)n1 [Example 128, 3-(8-amino-2-((6-methoxypyridin-2-yl)methyl)-5-(1-methyl-6-oxo-1,6-dihydropyridazin-3-yl)-[1,2,4]triazolo[1,5-a]pyrazin-6-yl)benzonitrile] | 10 to 100 | < 10 | 
17 | N#Cc1cccc(-c2nc(N)c3cc(C(=O)N4CCCCC4)nn3c2-c2ccncn2)c1 [Example 9, 3-(4-Amino-2-(piperidine-1-carbonyl)-7-(pyrimidin-4-yl)pyrazolo[1,5-a]pyrazin-6-yl)benzonitrile] | 10 to 100 | < 10 | 
18 | Cn1cc(-c2cccc(F)c2Cc2nc3c(N)nc(-c4cccc(C#N)c4F)cn3n2)cn1 [Example 83, 3-(8-amino-2-(2-fluoro-6-(1-methyl-1H-pyrazol-4-yl)benzyl)-[1,2,4]triazolo[1,5-a]pyrazin-6-yl)-2-fluorobenzonitrile] | < 10 | < 10 | 
19 | N#Cc1cccc(-c2nc(N)c3nc(Cc4c(F)cccc4CN[C@H]4C[C@@H](C(=O)O)C4)nn3c2-c2ccncn2)c1 [Example 71, (1S,3S)-3-((2-((8-amino-6-(3-cyanophenyl)-5-(pyrimidin-4-yl)-[1,2,4]triazolo[1,5-a]pyrazin-2-yl)methyl)-3-fluorobenzyl)amino)cyclobutane-1-carboxylic Acid] | < 10 | < 10 | 
20 | N#Cc1cccc(-c2cn3nc(Cc4c(F)cccc4-c4cnn(CC(N)=O)c4)nc3c(N)n2)c1F [Example 115, 2-(4-(2-((8-amino-6-(3-cyano-2-fluorophenyl)-[1,2,4]triazolo[1,5-a]pyrazin-2-yl)methyl)-3-fluorophenyl)-1H-pyrazol-1-yl)acetamide] | < 10 | < 10 | 
21 | CCc1ncoc1-c1c(-c2cccc(C#N)c2)nc(N)c2nc(Cc3ccccn3)nn12 [Example 43, 3-(8-Amino-5-(4-ethyloxazol-5-yl)-2-(pyridin-2-ylmethyl)-[1,2,4]triazolo[1,5-a]pyrazin-6-yl)benzonitrile] | < 10 | < 10 | 
22 | Cc1cc(-c2c(-c3cccc(C#N)c3F)nc(N)c3nc(C(O)c4c(F)cccc4F)nn23)cc(C)n1 (stereo not shown) [Example 126, 3-(8-amino-2-((2,6-difluorophenyl)(hydroxy)methyl)-5-(2,6-dimethylpyridin-4-yl)-[1,2,4]triazolo[1,5-a]pyrazin-6-yl)-2-fluorobenzonitrile] | 10 to 100 | < 10 | 
23 | N#Cc1cccc(-c2nc(N)c3nc(Cc4c(F)cccc4CN[C@H]4CCNC4=O)nn3c2-c2ccncn2)c1 [Example 68, (S)-3-(8-amino-2-(2-fluoro-6-(((2-oxopyrrolidin-3-yl)amino)methyl)benzyl)-5-(pyrimidin-4-yl)-[1,2,4]triazolo[1,5-a]pyrazin-6-yl)benzonitrile] | 10 to 100 | < 10 | 
24 | N#Cc1cccc(-c2nc(N)c3cc(Cc4ccccc4F)nn3c2C2=CCN(C(N)=O)CC2)c1 [Example 19, 4-(4-Amino-6-(3-cyanophenyl)-2-(2-fluorobenzyl)pyrazolo[1,5-a]pyrazin-7-yl)-5,6-dihydropyridine-1(2H)-carboxamide] | 10 to 100 | < 10 | 
25 | CCCn1nccc1-c1c(-c2cccc(C#N)c2)nc(N)c2cc(C(=O)NCC)nn12 [Example 2, 4-Amino-6-(3-cyanophenyl)-N-ethyl-7-(1-propyl-1H-pyrazol-5-yl)pyrazolo[1,5-a]pyrazine-2-carboxamide] | 10 to 100 | < 10 | 
26 | Cn1cc(-c2c(-c3cccc(C#N)c3F)nc(N)c3nc(Cc4ccccn4)nn23)ccc1=O [Example 89, 3-(8-amino-5-(1-methyl-6-oxo-1,6-dihydropyridin-3-yl)-2-(pyridin-2-ylmethyl)-[1,2,4]triazolo[1,5-a]pyrazin-6-yl)-2-fluorobenzonitrile] | 10 to 100 | < 10 | 
27 | CN(C)C(=O)Cn1cc(-c2cccc(F)c2Cc2nc3c(N)nc(-c4cccc(C#N)c4F)cn3n2)cn1 [Example 114, 2-(4-(2-((8-amino-6-(3-cyano-2-fluorophenyl)-[1,2,4]triazolo[1,5-a]pyrazin-2-yl)methyl)-3-fluorophenyl)-1H-pyrazol-1-yl)-N,N-dimethylacetamide] | 10 to 100 | < 10 | 
28 | N#Cc1cccc(-c2nc(N)c3nc(Cc4ccccc4CN4CC[C@H](O)C4)nn3c2-c2ccncn2)c1 [Example 123, (S)-3-(8-Amino-2-(2-((3-hydroxypyrrolidin-1-yl)methyl)benzyl)-5-(pyrimidin-4-yl)-[1,2,4]triazolo[1,5-a]pyrazin-6-yl)benzonitrile] | 10 to 100 | < 10 | 
29 | N#Cc1cccc(-c2nc(N)c3cc(Cc4ccccn4)nn3c2-c2ccncn2)c1 [Example 17, 3-(4-Amino-2-(pyridin-2-ylmethyl)-7-(pyrimidin-4-yl)pyrazolo[1,5-a]pyrazin-6-yl)benzonitrile] | < 10 | < 10 | 
